{"source": "patent EP1046401A2", "about": "“Fatty acid derivative labelled with a radioactive transition metal” (NIHON MEDI-PHYSICS Co., Ltd., priority 1999, dated 2000)", "key": {"liver slice [1]": {"system": "liver slice", "assay": "Determination of the metabolites by in vitro test (liver slice, reversed phase HPLC)", "type": "in vitro ADME, rat", "settings": "2-bromooctanoic acid added as inhibitor for the β-oxidation, liver slice incubation", "experimental": "(§1) Under anesthetized, a rat was subjected to celiotomy and bleeded by perfusion via the portal vein with 20 mM of tris-HCl buffer solution (containing 100 mM of potassium chloride, 5 mM of magnesium chloride, 5 mM of potassium dihydrogen phosphate, pH 7.4) which is saturated with O2/CO2 (95/5) gas. Then, the liver was excised and pieces of liver slice having the thickness of 300 µm were prepared by using Stadie, Riggs type of slicer (manufactures by NATSUME SEISAKUSHO). After weighing, each pieces of liver slices were divided into two groups. […] The samples were analyzed by reversed phase HPLC under the same conditions employed in Determination of metabolites by in vivo test. Survival rate of the cells in the liver slice sample used in the test was determined by measuring the activity of lactic acid dehydrogenase (LDH) leaked into the culture medium. […]\nIn conducting the in vitro experiment for determining the metabolite more than 90% of the radioactivity in liver homogenate was extracted.\n21.2 ± 3.0% of the whole radioactivity was eluted at the fraction retained at 17 minutes. […]"}, "liver slice [2]": {"system": "liver slice", "assay": "Survival of cells in the liver slice by lactic acid dehydrogenase (LDH) leaked into the medium", "type": "cell-based, rat", "settings": "inhibition group (2-bromooctanoic acid 100 µM), at the termination point of experiments; no significant difference from control group", "experimental": "as §1, with “groups. One is inhibiting group which was preincubated in 20mM tris-HCl buffer solution at 37°C for 5 minutes, in the presence of 2-bromooctanoic acid (the final concentration: 100 µM) as β-oxidation inhibitor, and another one is control group which was preincubated in 20 mM tris-HCl buffer solution at 37°C for 5 minutes, without the inhibitor. Next, [^99mTc]MAMA-HA (3.7 MBq) was added, and incubation was carried out under bubbling O2/CO2 (95/5) gas at 37°C for 60 minutes with shaking 60 times per minute.” for “groups.”"}}, "data": [{"smiles": "CCCCCCC(Br)C(=O)O", "note": "(centres unmarked) [2-bromooctanoic acid]", "values": [{"measurement": "formation of [^99mTc]MAMA-BA from [^99mTc]MAMA-HA", "setting": "liver slice [1]", "result": "inhibited completely"}, {"measurement": "LDH activities", "setting": "liver slice [2]", "result": "3,285 ± 367 IU/L"}]}]}
